For test [1], the target named is T1, avidin (Gallus gallus, UniProt P02701).
T1 construct: avidin (lyophilised powder, from egg white); purchased Sigma-Aldrich; host or cells: egg white
The experiment in a line: Avidin binding saturation in solution, percentage binding determined by HPLC. As to conditions: 2-128 nmol ligand, 2 nmol avidin, 5 min, room temperature.
Procedure: The percentage binding was determined by HPLC analysis.
The incubation was carried out during 5 min at room temperature with varied ligand concentration resulting in ligand/avidin ratio of 0.25, 1, 4 and 16. Data are presented as mean±SD (n=2). […] The specific binding presented as the avidin consumption in percentage was plotted against the ratio of total molar concentration of added ligands and avidin. The result was analyzed by nonlinear regression using the GraphPad Prism Software.

For test [2], the system named is porcine islets. As to conditions: porcine islets in vitro; cited from earlier work.

The text below walks through data of patent US8846001B2 (GE Healthcare Limited, priority 2009, dated 2014).

The structures appear in SMILES notation.

T1 sequence (P02701 25-152): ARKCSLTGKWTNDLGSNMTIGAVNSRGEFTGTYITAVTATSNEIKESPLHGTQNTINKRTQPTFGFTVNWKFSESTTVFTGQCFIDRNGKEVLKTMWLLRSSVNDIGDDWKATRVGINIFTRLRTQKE

As to `O=C(O)CCCC[C@@H]1SC[C@@H]2NC(=O)N[C@@H]21` [Biotin, 5-[(3aS,4S,6aR)-2-oxohexahydro-1H-thieno[3,4-d]imidazol-4-yl]pentanoic acid], the “binding to avidin in solution (in words)” value in test [1] is given as “highest binding”. In the case of `OC[C@H]1OC(O)[C@H]([18F])[C@@H](O)[C@@H]1O` (some centres unmarked) [[^18F]FDG], the half-life of retention in test [2] is 2.358 h.
